Data as given in patent US12473313B2, “Therapeutic compounds and methods of use thereof” (Regents of the University of Minnesota, priority 2020, dated 2025).

Assays:
[1] = target: mitochondrial reactive oxygen species (mitoROS); assay: ROS-Glo Assay of superoxide dismutase activity on menadione-induced mitoROS; format: cell-based; conditions: for half maximal effective concentration (EC50) for mitoROS suppression: FIG. 6, compared with mitoTEMPO
From the text: To test compounds for mitochondrial antioxidant behavior, the ROS-Glo Assay to assess superoxide dismutase activity of induced mitochondrial reactive oxygen species (mitoROS). In this assay, menadione is used to induce mitoROS production, and then a […] is used to measure the resultant hydrogen peroxide levels. A higher level of hydrogen peroxide means more dismutase activity.

[2] = Body weight and serum glucose of treated diabetic mice; format: in vivo; conditions: 1 mg/kg/day for 2 weeks, versus before treatment
Method: (§1) To test compound activity against mitochondrial oxidative stress and diastolic dysfunction Mice were fed a high fat diet for 16 weeks starting at 6 weeks of age. Before treatment, fasting blood glucose (Gluc) and body weight were measured. Gluc was used to screen for diabetes mellitus (DM). Echocardiography was used to identify DD by measuring the E/e′ ratio. Treatment of compounds 58 and 94 was 1 mg/kg/day for 2 weeks. Then, E/e′ was reassessed.

[3] = tested on: diabetic mice; assay: Diastolic dysfunction (E/e′ ratio by echocardiography) in high fat diet diabetic mice; format: in vivo; conditions: diabetic mice (high fat diet 16 weeks), 1 mg/kg/day for 2 weeks
Method: as §1

[4] = tested on: mitoROS in diabetic (DM) mice; assay: mitoROS in diabetic (DM) mice measured by mitoSOX Red fluorescence; format: in vivo; conditions: FIG. 9
Method: as §1

[5] = tested on: mice with HFpEF; conditions: mice with HFpEF (Jeong et al. J Am Heart Assoc. 2016); cited from earlier work

| SMILES | half maximal effective concentration (EC50) for mitoROS suppression [1] | body weight [2] | diastolic dysfunction as measured by E/e′ ratio [3] | also measured |
| --- | --- | --- | --- | --- |
| COc1ccc([P@TB15+](CC(=O)NC2CC(C)(C)N([O])C(C)(C)C2)(c2ccc(OC)cc2)c2ccc(OC)cc2)cc1 [compound 2, 2,2,6,6-Tetramethyl-4-[[2-(tri-4-methoxyphenyl-phosphonio)acetyl]amino]-1-piperidinyloxy Chloride] | lower EC50s for mitoROS suppression than did mitoTEMPO | – | – | – |
| COc1ccc([P+](CCC(=O)NC2CC(C)(C)N(O)C(C)(C)C2)(c2ccc(OC)cc2)c2ccc(OC)cc2)cc1.[Br-] [compound 58, 2,2,6,6-Tetramethyl-4-[[3-(tri-4-methoxyphenylphosphonio)-propionyl]amino]-1-piperidinyloxy Bromide] | – | Neither serum glucose nor body weight were affected | Diastolic dysfunction is treated | half maximal inhibitory concentration (IC50) ([1]; ROS-Glo assay, FIG. 5, compared with mitoTEMPO): better than that of mitoTEMPO; mitoROS as measured by mitoSOX Red fluorescence [4]: able to reduces mitoROS |
| CC1(C)CC(NC(=O)CCCCC[P+](c2ccc(F)cc2)(c2ccc(F)cc2)c2ccc(F)cc2)CC(C)(C)N1[O].[Br-] [compound 86, 2,2,6,6-Tetramethyl-4-[[6-(tri-4-fluorophenylphosphonio)-hexanoyl]amino]-1-piperidinyloxy Bromide] | lower EC50s for mitoROS suppression than did mitoTEMPO | – | – | – |
| COc1cc(OC)c([P+](CC(=O)NC2CC(C)(C)N([O])C(C)(C)C2)(c2c(OC)cc(OC)cc2OC)c2c(OC)cc(OC)cc2OC)c(OC)c1.[Cl-] [compound 88, 2,2,6,6-Tetramethyl-4-[[2-(tri-2,4,6-trimethoxyphenyl(2-phosphonia))acetyl]amino]-1-piperidinyloxy Chloride] | lower EC50s for mitoROS suppression than did mitoTEMPO | – | – | – |
| CC1(C)CC(NC(=O)C[P+](c2ccc(F)cc2)(c2ccc(F)cc2)c2ccc(F)cc2)CC(C)(C)N1[O].[Cl-] [compound 94, 2,2,6,6-Tetramethyl-4-[[2-(tri-4-fluorophenylphosphonio)-acetyl]amino]-1-piperidinyloxy Chloride] | – | did not affect | Diastolic dysfunction is treated | – |
| CC1(C)CC(NC(=O)C[P+](c2ccccc2)(c2ccccc2)c2ccccc2)CC(C)(C)N1[O] [mitoTEMPO] | – | – | – | diastolic function [5]: improve diastolic function |
